These results are taken from PubChem BioAssay (NCI).

Assay in all cases: inhibition of tumour cell growth, NCI panel, 48 h
Assay [1] relates to OVCAR-3 ovarian.
Assay [2] has as its system OVCAR-8 ovarian.
Assay [3] has as its system UACC-62 melanoma.
The subject of assay [4] is UACC-257 melanoma.
The subject of assay [5] is HOP-62 NSCLC.
Assay [6] relates to SK-MEL-5 melanoma.
Assay [7] concerns MCF7 breast.
The test system of assay [8] is MALME-3M melanoma.
The subject of assay [9] is HL-60(TB) leukemia.
The subject of assay [10] is COLO 205 colon.

Values joined by “and” are separate entries in the source; they are usually repeats but may differ in a detail not shown here. Equal values may be shown once.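 Five compound concentrations were applied to cells in 96-well plates for 48 hours; endpoints were derived by simple linear interpolation of the resulting dose-response curve. Abbreviation: GI50, concentration required for 50% inhibition of growth. TGI is the concentration that stops growth completely.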

For `C=C=[CH][Sn]([c]1ccccc1)([c]1ccccc1)[c]1ccccc1`, the GI50 in assay [1] is 1540 nM; in assay [2], 1850 nM; in assay [3], 1650 nM; in assay [4], 1630 nM; in assay [5] it was 2450 nM; in [6], 1560 nM. The GI50 in assay [7] was 1410 nM; in assay [8], 1740 nM; in assay [9], 1780 nM; in assay [10], 1520 nM. Besides, the TGI in assay [1] amounted to 4610 nM; in assay [2] it was 3680 nM; in assay [3], 3280 nM; in [4], 3050 nM; in assay [5], 5260 nM; in [6] it was 3090 nM. The TGI in assay [7] was 2810 nM; in [8], 3570 nM; in assay [9], 4570 nM; in [10], 2870 nM.

On to `CC[C@@]1(OC(=O)CN)C(=O)OCc2c1cc1n(c2=O)Cc2cc3c(N)c4c(cc3nc2-1)OCO4`, for which the GI50 was 35.2 nM and 11.6 nM in assay [1]; 0.109 nM in assay [2]; below 0.1 nM in assay [3]; 15.8 nM in assay [4]; below 0.1 nM in [5]; 0.182 nM in assay [6]. The GI50 in assay [7] was below 0.1 nM; in [8], 12.4 nM; in [9] it was below 0.1 nM; in [10], 41.9 nM and 110 nM. Moreover, the TGI in assay [1] was 481 nM and 336 nM; in assay [2], 107 nM and 12.8 nM; in assay [3], 24.6 nM; in [4], 228 nM; in assay [5] it was 205 nM and 250 nM; in assay [6] it was 139 nM. In addition, the TGI was 889 nM and 221 nM in assay [8]; 111 nM in assay [9]; 961 nM in [10].

For the molecule `CCN(CC)c1ccc2nc3c4ccccc4c(=NC(=O)c4ccccc4-c4c5ccc(N(CC)CC)cc5[o+]c5cc(N(CC)CC)ccc45)cc-3oc2c1`, the GI50 in [1] was 850 nM; in assay [2] it was 2230 nM; in assay [3], 5730 nM; in [4] it was 1460 nM; in assay [5] it was 1810 nM; in assay [6], 1260 nM. Also, the GI50 in assay [7] was 1590 nM; in assay [8] it was 2920 nM; in assay [9], 2960 nM; in assay [10], 1590 nM. In addition, the TGI in [1] amounted to 6260 nM; in assay [2], 12200 nM; in [3], 17900 nM; in assay [4], 3400 nM; in assay [5], 4530 nM; in assay [6] it was 2680 nM. For the same molecule, the TGI in assay [8] is 10200 nM; in [9] it was above 100000 nM; in [10], 3830 nM.

Consider `CSc1ccc(C2=NN(C(=O)c3ccc(N)cc3)C(c3ccc(F)cc3)C2)cc1` (stereo not drawn), for which the GI50 was 4540 nM in [1]; 16100 nM in assay [2]; 10100 nM in assay [3]; 20400 nM in [4]; 16000 nM in [5]; 5660 nM in [6]. Moreover, the GI50 in assay [7] is 3420 nM; in assay [8] it was 8090 nM; in assay [9], 10500 nM; in assay [10], 7450 nM. The TGI in assay [1] came out at 17200 nM; in assay [2] it was 32500 nM; in assay [3] it was 22500 nM; in [4] it was 35600 nM; in assay [5], 29800 nM; in assay [6] it was 18800 nM. Further, the TGI in [7] was 15200 nM; in [8], 23000 nM; in assay [9], 36100 nM; in [10] it was 22700 nM.

Turning to `Cc1cc2c(C(C)C)c(O)c(O)c(C=O)c2c(O)c1-c1c(C)cc2c(C(C)C)c(O)c(O)c(C=O)c2c1O` (tested in a mixture with another compound), the GI50 in assay [1] was 1030 nM; in [2], 1180 nM; in assay [3] it was 1870 nM; in assay [4], 1790 nM; in assay [5] it was 988 nM; in assay [6], 1540 nM. Further, the GI50 is 1180 nM in [7], 1740 nM in assay [8], 535 nM in assay [9] and 1360 nM in assay [10]. In addition, the TGI was 2690 nM in assay [1]; 3490 nM in assay [2]; 4230 nM in assay [3]; 4120 nM in assay [4]; 2900 nM in assay [5]; 2950 nM in assay [6]. Moreover, the TGI was 6900 nM in assay [7], 5010 nM in assay [8], 5740 nM in assay [9] and 2870 nM in [10].

For the molecule `ClC1=C(Cl)C(Cl)=C(Cl)C1=Cc1ccc(Cl)cc1`, the GI50 in [1] is 309 nM; in assay [2] it was 360 nM; in assay [3], 363 nM; in [4], 1370 nM; in assay [5], 802 nM; in assay [6], 1170 nM. The GI50 in assay [7] was 386 nM; in assay [8] it was 1420 nM; in assay [9], 1210 nM; in assay [10], 406 nM. Also, the TGI amounted to 853 nM in assay [1]; 2270 nM in assay [2]; 1650 nM in [3]; 3300 nM in assay [4]; 2300 nM in assay [5]; 2410 nM in assay [6]. The TGI in assay [7] was found to be 1790 nM; in assay [8] it was 3600 nM; in assay [9], 5860 nM; in assay [10], 1520 nM.

Take `O=C(/C=C/c1cccc(B(O)O)c1)c1cccc(B(O)O)c1`: the GI50 in [1] is 828 nM; in assay [2], 2190 nM; in assay [3] it was 1660 nM; in assay [4], 1380 nM; in assay [5], 1590 nM; in [6] it was 1850 nM. Besides, the GI50 in [7] is 742 nM; in assay [8] it was 2260 nM; in assay [9], 2170 nM; in assay [10] it was 1760 nM. The TGI in assay [1] stood at 2380 nM; in assay [2], 7230 nM; in assay [3], 4310 nM; in [4], 3310 nM; in assay [5], 3260 nM; in assay [6], 3830 nM. Further, the TGI in assay [7] amounted to 7580 nM; in assay [8], 6010 nM; in [9], 6330 nM; in [10] it was 3450 nM.
